In patent US20050261319A1, “Novel 2-amino-4-quinazolinones and 2-amino-4-oxoquinazolones as LXR nuclear receptor binding compounds with partial agonistic properties” (priority 2002, published 2005):

Legend:
Format in all cases: cell-based
[1] = tested on: THP-1 macrophages; assay: Cholesterol efflux from differentiated THP-1 macrophages; settings: ApoA1, 10 uM, 24 h
Experimental: Methods: Cultures of the monocyte-macrophage cell line and the hepatocytes HepG2 are obtained from the American Type tissue Culture Collection, Rockville, Md. and were grown in RPMI 1640 medium supplemented with 10% fetal bovine serum, 10 mM HEPES, 2 mM pyruvate, 50 uM (3-Mercaptoethanol (THP-1) and Minimum essential medium (Eagle) with 2 mM L-glutamine and Earle's BSS supplemented with 10% fetal bovine serum, 2 mM glutamin, 0.1 mM non-essential amino acids, 1 mM sodium pyruvate (HepG2), respectively, at 37° C. in 5% CO2. THP-1 cells are differentiated into macrophages by addition of 100 nM Phorbol 12-Myristate 13-Acetate (PMA; Sigma P8139) and PMA included in the medium of all subsequent experiments to maintain differentiation. For cholesterol efflux measurements and triglyceride analysis cells are seeded in 6 well plates at 1.8×10^6 cells (THP-1) and 1×10^6 cells (HepG2) per well, respectively. CHOLESTEROL EFFLUX THP-1 cells are seeded in 6 well plates at 1×10^6 cells per well in RPMI 1640 medium containing 10% FCS and 100 nM TPA for 72 h. After washing with PBS cells are incubated 24 h with fresh in RPMI 1640 medium containing 10% FCS and 100 nM TPA. […] Medium is collected, centrifuged to remove cell debris and assayed for cholesterol using a commercial fluorometric kit (Molecular Probes A-12216). The remaining cellular proteins are lysed with 0.3 NNaOH and protein content measured with the Biorad Bradford reagent. THP-1 (1×10^6 cells per dish) cells were seeded in 6 well dishes in 3 ml modified RPMI 1640 medium (ATTC, Cat. […] After incubation for 24 hours, total cholesterol was determined from cell supernatant in each of the wells using an enzymatic assay with fluorescence read-out for the determination of cholesterol (Amplex Red Cholesterol Assay Kit (A-12213). The fluorescence readout per mg of total protein content as determined from cells that were present in the respective well are shown in FIGS. 9 or 11 as an example.

[2] = molecular target: T1, GAL4-LXRb-LBD (Homo sapiens, UniProt P55055); assay: Mammalian one hybrid (M1H) luciferase assay in HEK293 cells, LXR beta LBD; settings: for LXR beta LBD construct mediated luciferase activity compared with LXR alpha construct: M1H assay
T1 construct: expressed in transfected cells; host or cells: HEK293
T1 sequence (P55055 222-460 limits assumed): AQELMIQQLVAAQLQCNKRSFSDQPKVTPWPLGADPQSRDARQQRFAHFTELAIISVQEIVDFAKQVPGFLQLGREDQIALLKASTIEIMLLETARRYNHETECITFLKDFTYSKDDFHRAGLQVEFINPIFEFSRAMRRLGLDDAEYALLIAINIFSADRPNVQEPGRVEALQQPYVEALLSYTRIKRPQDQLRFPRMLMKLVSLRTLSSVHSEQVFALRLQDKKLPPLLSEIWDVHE
Experimental: (§1) For TR1040001892, TR1040011382, TR1040002211, and TR1040002212, HEK293 cells are grown in 96 well plates and co-transfected with pFR-luc (Stratagene) and pCMV-BD-LXRa-LBD or pCMV-BD-LXRb-LBD (each 100 ng of plasmid DNA per well). Transfection is carried using Lipfectamine 2000 (Gibco-BRL) according to the manufacturers protocol. The ligand binding domains (LBD) of LXRa and LXRb are cloned into the pCMV-BD-GW (the Gateway Reading Frame Cassette B is cloned as an EcoRV fragment into Sma1 site of pCMV-BD) applying the manufacturer protocols for the Gateway system (Invitrogen). […] The type of assay used here is a mammalian one hybrid (M1 H) assay that is known to those skilled in the art.

[3] = molecular target: T2, GAL4-LXRa-LBD (Homo sapiens, UniProt Q13133); assay: Mammalian one hybrid (M1H) luciferase assay in HEK293 cells, LXR alpha LBD
T2 construct: expressed in transfected cells; host or cells: HEK293
T2 sequence (Q13133 209-447 limits assumed): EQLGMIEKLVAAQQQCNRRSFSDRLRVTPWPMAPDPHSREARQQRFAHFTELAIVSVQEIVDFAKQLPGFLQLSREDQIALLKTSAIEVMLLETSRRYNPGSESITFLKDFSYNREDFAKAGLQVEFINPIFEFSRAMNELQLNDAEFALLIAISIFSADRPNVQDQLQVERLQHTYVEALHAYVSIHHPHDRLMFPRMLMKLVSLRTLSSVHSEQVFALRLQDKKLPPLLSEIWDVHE
Experimental: as §1

[4] = tested on: HepG2 liver cells; assay: Triglyceride assay in HepG2 cells; settings: 24 h, 25 pM
Experimental: Methods: Cultures of the monocyte-macrophage cell line and the hepatocytes HepG2 are obtained from the American Type tissue Culture Collection, Rockville, Md. and were grown in RPMI 1640 medium supplemented with 10% fetal bovine serum, 10 mM HEPES, 2 mM pyruvate, 50 uM (3-Mercaptoethanol (THP-1) and Minimum essential medium (Eagle) with 2 mM L-glutamine and Earle's BSS supplemented with 10% fetal bovine serum, 2 mM glutamin, 0.1 mM non-essential amino acids, 1 mM sodium pyruvate (HepG2), respectively, at 37° C. in 5% CO2.
For cholesterol efflux measurements and triglyceride analysis cells are seeded in 6 well plates at 1.8×10^6 cells (THP-1) and 1×10^6 cells (HepG2) per well, respectively.
TRIGLYCERIDE ASSAY HepG2 cells are seeded in poly-L-Lysine coated 6 well plates at 1×10^6 cells per well in EMEM medium containing 10% FCS until they were appr. 60% confluent. Before treatment with LXR compounds growth medium is changed to medium containing 10% charcoal/dextran-stripped FCS for 12 h. Treatment is done for 24 h in medium containing 10% charcoal/dextran-stripped FCS. Cells are washed twice with ice-cold PBS/0.2% BSA and twice with cold PBS and all liquid carefully removed. Triglyceride are extracted with 1.5 ml hexane/isopropanol=3: 2 per well with gentle shaking for 2-3 h at RT according to Pan et al. (2002) JBC277, 4413-4421 and Goti et al. (1998) Biochem J, 332, 57-65. The extraction solution is collected, dried under vacuum and redissolved in isopropanol/1.5% triton. The remaining cellular proteins are lysed with 0.3 N NaOH and protein content measured with the Biorad Bradford reagent.
Triglyceride levels are measured as esterified glycerol using a commercial enzymatic colorimetric kit (Sigma 343-25P). In a preliminary assay it is checked by omitting the lipase enzyme that contribution of free glycerol is negligible.

Question: `C=CCn1c(N2C3CC(C)(C)CC2(C)C3)nc2ccc(I)cc2c1=O` (stereo not drawn) [formula (9)] was tested. Which cholesterol export [1] did it give?
Answer: Its cholesterol export is “marked increase”.

Question: And the “luciferase reporter gene expression mediated through GAL4-LXRb-LBD” value [2]?
Answer: Its value is “activate luciferase reporter gene expression in a dose dependent manner”.

Question: And the “LXR beta LBD construct mediated luciferase activity compared with LXR alpha construct” value [2]?
Answer: The value was “much stronger than with LXR alpha construct”.

Question: And the “luciferase reporter gene expression mediated through GAL4-LXRa-LBD” value [3]?
Answer: Its value is “activate luciferase reporter gene expression in a dose dependent manner”.

Question: And the triglyceride mass [4]?
Answer: The triglyceride mass was “do not cause a significant increase”.

Question: With `CC(C)n1c(N2C3CC(C)(C)CC2(C)C3)nc2ccc(I)cc2c1=O` (stereo not drawn) [formula (10)] as the compound, how does the cholesterol export [1] read?
Answer: Its cholesterol export is “marked increase”.

Question: And the “luciferase reporter gene expression mediated through GAL4-LXRb-LBD” value [2]?
Answer: Its value is “activate luciferase reporter gene expression in a dose dependent manner”.

Question: What about the “LXR beta LBD construct mediated luciferase activity compared with LXR alpha construct” value [2] of the same compound?
Answer: The value was “much stronger than with LXR alpha construct”.

Question: What about the “luciferase reporter gene expression mediated through GAL4-LXRa-LBD” value [3] of the same compound?
Answer: Its value is “activate luciferase reporter gene expression in a dose dependent manner”.

Question: And the triglyceride mass [4]?
Answer: Its triglyceride mass is “do not cause a significant increase”.

Question: Which results are given for `CCCn1c(N2[C@@H]3CC(C)(C)C[C@@]2(C)C3)nc2cccc(F)c2c1=O` [formula (11)]?
Answer: cholesterol export [1]: marked increase; luciferase reporter gene expression mediated through GAL4-LXRb-LBD [2]: activate luciferase reporter gene expression in a dose dependent manner; luciferase reporter gene expression mediated through GAL4-LXRa-LBD [3]: activate luciferase reporter gene expression in a dose dependent manner; triglyceride mass [4]: slight increase

Question: Which cholesterol export [1] does the source give for `C=CCn1c(N2[C@@H]3CC(C)(C)C[C@@]2(C)C3)nc2cccc(F)c2c1=O` [formula (12)] here?
Answer: The cholesterol export was “marked increase”.

Question: And the “luciferase reporter gene expression mediated through GAL4-LXRb-LBD” value [2]?
Answer: The value was “activate luciferase reporter gene expression in a dose dependent manner”.

Question: What about the “luciferase reporter gene expression mediated through GAL4-LXRa-LBD” value [3] of the same compound?
Answer: The value was “activate luciferase reporter gene expression in a dose dependent manner”.

Question: What about the triglyceride mass [4] of the same compound?
Answer: The triglyceride mass was “slight increase”.
